Where “and” joins values, the source holds several entries; their conditions need not be identical. Equal entries are not always repeated.
Assays:
[1] = biological target: T1, human 5-HT2A (h5-HT2A) receptor (Homo sapiens, UniProt P28223); assay: FLIPR assay, human 5-HT2A receptor under agonist mode; format: cell-based; details: 5-HT2A (FLIPR); for RFU@10 μM: RFU=Fmax−Fmin; for EC50: read-out: EC50
T1 construct: expressed in transfected cells; cultured under G418 and hygromycin B selection
Method: I. Assessment of the Effect of Exemplary Compounds of Formula I Targeting on Human 5-HT2A (h5-HT2A) Receptor Under Agonist Mode
• 1. Cells were cultured in cell culture medium (DMEM containing 10% FBS, 1×penicillin-streptomycin 300 μg/ml G418 and 100 μg/ml hygromycin B) at 37° C., 5% (v/v) CO2. • 2. One day before the assays, the cells were detached using TrypLE™ Express and cells were counted using cell counter. Only cells with >85% viability were used for the assay. • 3. 20000 cells/well were seeded in 30 μl/well culture medium to a 384-well cell plate and cells were incubated overnight at 37° C., 5% (v/v) CO2. • 4. On the assay day, 2×dye solution was prepared following the manual of the FLIPR® Calcium 6 Assay Kit: i. The dye was diluted with assay buffer (20 mM HEPES in 1× HBSS, PH7.4); ii. Probenecid was added to the final concentration of 5 mM; iii. Vortex vigorously for 1-2 minutes. • 5. Medium was removed from cell plate by flicking the cell plate on towel papers. • 6. 10 μl of assay buffer and 10 μl of 2×dye solution was added to each well of the cell plate. • 7. The cell plate was placed on plate shaker, the plate was agitated at 600 rpm for 2 minutes. The plate was incubated at 37° C. for 2 hours followed by additional 15-minute incubation at 25° C. • 8. 3×compound in assay buffer was prepared: a. Reference compounds were diluted to required concentration with DMSO. The compounds were added to a 384-well compound plate; b. Serial dilutions were performed; c. 10 mM test compounds were added to the compound plate, and 3-fold serial dilutions were performed. d. Transfer 60 nl/well of compounds from source plate to a 384-well compound plate (Corning, 3657) by using an Echo; e. Add 20 μl/well assay buffer to the compound plate; f. Mix the plate on plate shaker for 2 mins; • 9. The cell plate, compound plate and tips were put into FLIPR, 10 μl of 3× compound was transferred to the cell plate per well with FLIPR.
• i. The normalized fluorescence reading (RFU) was calculated as shown below, where Fmax and Fmin stand for maximum and minimum of calcium signal during defined time window: RFU=Fmax−Fmin. • ii. Calculate the percentage activation using following equation:
[formula] • Iii. Calculate EC50 by fitting % activation against log of compound concentrations with Hill equation using XLfit.
Exemplary compounds of Formula I were evaluated functionally using FLIPR assay for their effect on h5-HT2A receptor under agonist mode.

[2] = Liver microsomes stability, human; details: for Predicted hepatic CL: human liver microsomes; for Remaining Percentage / CLint scaled at 2 μM / half-life at 2 μM / microsomal CLint at 2 μM: human; for CLint scaled at 2 μM / half-life at 2 μM / microsomal CLint at 2 μM: pooled liver microsomes
Method: (§1) The objective of this study was to estimate in vitro metabolic stability of representative compounds of the application in pooled human and male mouse liver microsomes. The concentrations of parent compounds in reaction systems were evaluated by LC-MS/MS for estimating the stability in pooled human and male mouse liver microsomes. The in vitro intrinsic clearances of test compounds were determined as well.
(§2) A master solution in the “Incubation Plate” containing phosphate buffer, ultra-pure H2O, MgCl2 solution and liver microsomes was made according to Table 3. The mixture was pre-warmed at 37° C. water bath for 5 minutes.
(§3) 40 μL of 10 mM NADPH solution was added to each well. The final concentration of NADPH was 1 mM. The negative control samples were prepared by replacing NADPH with 40 μL of ultra-pure H2O. Samples were prepared in duplicate. Negative controls were prepared in singlet.
(§4) The reaction was started with the addition of 4 μL of 200 μM test compounds or control compounds to each master solution to get the final concentration of 2 μM. This study was performed in duplicate.
(§5) Aliquots of 50 μL were taken from the reaction solution at 0, 15, 30, 45 and 60 minutes. The reaction solutions were stopped by the addition of 4 volumes of cold methanol with IS (100 nM alprazolam, 200 nM imipramine, 200 nM labetalol and 2 μM ketoprofen). Samples were centrifuged at 3,220 g for 40 minutes. Aliquot of 90 μL of the supernatant was mixed with 90 μL of ultra-pure H2O and then was used for LC-MS/MS analysis.
(§6) LC/MS analysis was performed for all samples from this study using a Shimadzu liquid chromatograph separation system equipped with degasser DGU-20A5R; solvent delivery unit LC-30AD; system controller SIL-30AC; column oven CTO-30A; CTC Analytics HTC PAL System. Mass spectrometric analysis was performed using a Triple Quad™ 5500 instrument.
(§7) All calculations were carried out using Microsoft Excel. Peak areas were determined from extracted ion chromatograms. The slope value, k, was determined by linear regression of the natural logarithm of the remaining percentage of the parent drug vs. incubation time curve.
(§8) The in vitro half-life (in vitro t1/2) was determined from the slope value:
(§9) Conversion of the in vitro t1/2 (min) into the in vitro intrinsic clearance (in vitro CLint, in μL/min/mg proteins) was done using the following equation (mean of duplicate determinations): […]

[3] = Liver microsomes stability, mouse; details: for CLint scaled at 2 μM / half-life at 2 μM / microsomal CLint at 2 μM: male, microsomes; for CLint scaled at 2 μM / half-life at 2 μM / microsomal CLint at 2 μM / Remaining Percentage: mouse; for Predicted hepatic CL: mouse liver microsomes
Method: as §1, §2, §3, §4, §5, §6, §7, §8, §9

[4] = Liver microsomes stability, rat; details: rat; for CLint scaled at 2 μM / Predicted hepatic CL / half-life at 2 μM / microsomal CLint at 2 μM: liver microsomes
Male, C57BL/6J mice = assay: Mouse head twitch; format: in vivo; details: for head twitches (mean): counted over 1 hr, male C57BL/6J mice
Method: The effect of different doses of representative compounds of Formula I were evaluated on head-twitch response (HTR) and other behavioural responses as behavior-based models of psychedelic activity.
Male, C57BL/6J mice (body weight range 20-30 g) were dosed with the appropriate dose of test article, and following a 1-minute pre-treatment time, placed in individual observation chambers. Animals were visually assessed for the incidence head twitches continuously over a 1 hr period. Head twitches were defined as a rapid jerk of the head which was not elicited by an external tactile stimulus (Come and Pickering, Psychopharmacologia, 1967, 11(1): 65-78). Each head twitch was individually counted by a trained observer, and the data was expressed as the mean±SEM of 6-10 mice per group. Mice were used in a single experiment only.
The head twitch response of exemplary compound II-1 (1-30 mg/kg SC) was compared to 5-MeO DMT and psilocybin (FIG. 1, Table 6).

T1 sequence (P28223 whole entry): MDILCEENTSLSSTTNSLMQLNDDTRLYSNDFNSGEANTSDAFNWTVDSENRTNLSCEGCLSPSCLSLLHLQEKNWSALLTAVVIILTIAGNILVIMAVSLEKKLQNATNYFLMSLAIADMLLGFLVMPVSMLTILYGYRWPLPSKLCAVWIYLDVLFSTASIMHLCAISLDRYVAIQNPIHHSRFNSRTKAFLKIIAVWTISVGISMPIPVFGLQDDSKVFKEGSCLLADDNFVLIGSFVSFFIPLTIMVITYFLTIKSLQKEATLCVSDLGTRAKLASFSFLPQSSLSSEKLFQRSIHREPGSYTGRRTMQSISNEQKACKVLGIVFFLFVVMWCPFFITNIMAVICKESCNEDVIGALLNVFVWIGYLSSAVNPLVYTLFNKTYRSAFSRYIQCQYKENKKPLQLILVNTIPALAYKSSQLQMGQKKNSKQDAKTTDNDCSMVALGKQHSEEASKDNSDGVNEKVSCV

CN(C)CCC1CNc2ccc(F)cc21 (stereo not drawn) [Compound I-2, 2-(5-Fluoroindolin-3-yl)-N,N-dimethylethan-1-amine]
RFU@10 μM [1]: 622
EC50 [1]: 107 nM
Predicted hepatic CL [2]: 1.73 mL/min/kg
Remaining Percentage ([2]; With NADPH, 0 min): 100.00%
Remaining Percentage ([2]; With NADPH, 30 min): 111.62%
Remaining Percentage ([2]; With NADPH, 60 min): 95.59%
Remaining Percentage ([2]; Without NADPH, 0 min): 100.00%
Remaining Percentage ([2]; Without NADPH, 30 min): 115.22%
Remaining Percentage ([2]; Without NADPH, 60 min): 108.70%
CLint scaled at 2 μM [2]: 1.89 mL/min/kg
half-life at 2 μM [2]: 921 min
microsomal CLint at 2 μM [2]: 1.5 µL/min/mg
CLint scaled at 2 μM [3]: 163 mL/min/kg
half-life at 2 μM [3]: 37.2 min
microsomal CLint at 2 μM [3]: 37.3 µL/min/mg
Predicted hepatic CL [3]: 57.99 mL/min/kg
Remaining Percentage ([3]; With NADPH, 0 min): 100.00%
Remaining Percentage ([3]; With NADPH, 30 min): 56.32%
Remaining Percentage ([3]; With NADPH, 60 min): 32.69%
Remaining Percentage ([3]; Without NADPH, 0 min): 100.00%
Remaining Percentage ([3]; Without NADPH, 30 min): 108.70%
Remaining Percentage ([3]; Without NADPH, 60 min): 97.83%
Remaining Percentage ([4]; With NADPH, 0 min): 100.00%
Remaining Percentage ([4]; With NADPH, 30 min): 14.82%
Remaining Percentage ([4]; With NADPH, 60 min): 3.66%
Remaining Percentage ([4]; Without NADPH, 0 min): 100.00%
Remaining Percentage ([4]; Without NADPH, 30 min): 106.67%
Remaining Percentage ([4]; Without NADPH, 60 min): 104.17%
CLint scaled at 2 μM [4]: 198 mL/min/kg
Predicted hepatic CL [4]: 43.15 mL/min/kg
half-life at 2 μM [4]: 12.6 min
microsomal CLint at 2 μM [4]: 110 µL/min/mg

[2H]C([2H])([2H])Oc1ccc2c(c1)C(CCN(C)C)CN2 (stereo not drawn) [Compound I-11, 2-(5-(Methoxy-d3)indolin-3-yl)-N,N-dimethylethan-1-amine]
RFU@10 μM [1]: 980
EC50 [1]: 19 nM
Predicted hepatic CL [2]: 12.66 mL/min/kg
Remaining Percentage ([2]; With NADPH, 0 min): 100.00%
Remaining Percentage ([2]; With NADPH, 30 min): 72.72%
Remaining Percentage ([2]; With NADPH, 60 min): 45.89%
Remaining Percentage ([2]; Without NADPH, 0 min): 100.00%
Remaining Percentage ([2]; Without NADPH, 30 min): 97.58%
Remaining Percentage ([2]; Without NADPH, 60 min): 92.20%
CLint scaled at 2 μM [2]: 32.6 mL/min/kg
half-life at 2 μM [2]: 53.4 min
microsomal CLint at 2 μM [2]: 26 µL/min/mg
CLint scaled at 2 μM [3]: 334 mL/min/kg
half-life at 2 μM [3]: 18.2 min
microsomal CLint at 2 μM [3]: 76.3 µL/min/mg
Predicted hepatic CL [3]: 70.89 mL/min/kg
Remaining Percentage ([3]; With NADPH, 0 min): 100.00%
Remaining Percentage ([3]; With NADPH, 30 min): 31.50%
Remaining Percentage ([3]; With NADPH, 60 min): 10.14%
Remaining Percentage ([3]; Without NADPH, 0 min): 100.00%
Remaining Percentage ([3]; Without NADPH, 30 min): 94.39%
Remaining Percentage ([3]; Without NADPH, 60 min): 80.37%
Remaining Percentage ([4]; With NADPH, 0 min): 100.00%
Remaining Percentage ([4]; With NADPH, 30 min): 22.43%
Remaining Percentage ([4]; With NADPH, 60 min): 6.59%
Remaining Percentage ([4]; Without NADPH, 0 min): 100.00%
Remaining Percentage ([4]; Without NADPH, 30 min): 102.53%
Remaining Percentage ([4]; Without NADPH, 60 min): 85.67%
CLint scaled at 2 μM [4]: 162 mL/min/kg
Predicted hepatic CL [4]: 41.20 mL/min/kg
half-life at 2 μM [4]: 15.3 min
microsomal CLint at 2 μM [4]: 90.7 µL/min/mg

COc1ccc2c(c1)C(CCN(C)C)CN2 (stereo not drawn) [II-1, 2-(5-Methoxyindolin-3-yl)-N,N-dimethylethan-1-amine]
RFU@10 μM [1]: 1813 and 1180
EC50 [1]: 202 nM and 274 nM
Predicted hepatic CL [2]: 14.13 mL/min/kg
Remaining Percentage ([2]; With NADPH, 0 min): 100.00%
Remaining Percentage ([2]; With NADPH, 30 min): 65.37%
Remaining Percentage ([2]; With NADPH, 60 min): 34.47%
Remaining Percentage ([2]; Without NADPH, 0 min): 100.00%
Remaining Percentage ([2]; Without NADPH, 30 min): 89.91%
Remaining Percentage ([2]; Without NADPH, 60 min): 83.49%
CLint scaled at 2 μM [2]: 44.5 mL/min/kg
half-life at 2 μM [2]: 39 min
microsomal CLint at 2 μM [2]: 35.5 µL/min/mg
CLint scaled at 2 μM [3]: 368 mL/min/kg
half-life at 2 μM [3]: 16.5 min
microsomal CLint at 2 μM [3]: 84.2 µL/min/mg
Predicted hepatic CL [3]: 72.33 mL/min/kg
Remaining Percentage ([3]; With NADPH, 0 min): 100.00%
Remaining Percentage ([3]; With NADPH, 30 min): 31.98%
Remaining Percentage ([3]; With NADPH, 60 min): 8.00%
Remaining Percentage ([3]; Without NADPH, 0 min): 100.00%
Remaining Percentage ([3]; Without NADPH, 30 min): 117.83%
Remaining Percentage ([3]; Without NADPH, 60 min): 113.85%
head twitches (mean) (Male, C57BL/6J mice; 0.3 mg/kg SC): 3.2
head twitches (mean) (Male, C57BL/6J mice; 1 mg/kg SC): 3.8
head twitches (mean) (Male, C57BL/6J mice; 3 mg/kg SC): 3.6
head twitches (mean) (Male, C57BL/6J mice; 10 mg/kg SC): 2.3
mice with some 5-HT syndrome associated behaviours (Male, C57BL/6J mice; 30 mg/kg SC, 2/5 mice): 40%
head twitches (mean) (Male, C57BL/6J mice; 30 mg/kg SC): 4.2
head twitch response (in words) (Male, C57BL/6J mice; SC, dose range as in the sentence): only a modest head twitch response
other behavioural signs (locomotion, core body temperature, 5-HT syndrome) in words (Male, C57BL/6J mice; SC, psilocybin 3 and 10 mg/kg, 5-MeO DMT 3-30 mg/kg, II-1 0.3-30 mg/kg): No overt signs of hypolocomotion or 5-HT syndrome
peak head twitch response (Male, C57BL/6J mice; at 30 mg/kg SC, mean±SEM): 4.2±0.7 twitches
Remaining Percentage ([4]; With NADPH, 0 min): 100.00%
Remaining Percentage ([4]; With NADPH, 30 min): 20.42%
Remaining Percentage ([4]; With NADPH, 60 min): 5.99%
Remaining Percentage ([4]; Without NADPH, 0 min): 100.00%
Remaining Percentage ([4]; Without NADPH, 30 min): 86.92%
Remaining Percentage ([4]; Without NADPH, 60 min): 87.15%
CLint scaled at 2 μM [4]: 168 mL/min/kg
Predicted hepatic CL [4]: 41.56 mL/min/kg
half-life at 2 μM [4]: 14.8 min
microsomal CLint at 2 μM [4]: 93.8 µL/min/mg

Source: US20250353827A1, “INDOLINE DERIVATIVES AS SEROTONERGIC AGENTS USEFUL FOR THE TREATMENT OF DISORDERS RELATED THERETO” (MINDSET PHARMA INC., priority 2022, published 2025)
